From PubChem BioAssay AID1996
Converted amounts (≈) assume the structure as drawn.

details: buffer; pH 7.4; 200.0 µM

| SMILES | solubility kinetic [µg/mL] |
| --- | --- |
| O=C(CCc1c[nH]c2ccccc12)OCc1cccc([N+](=O)[O-])c1 | < 0.3 |
| COc1ccc(CNC(=O)COC(=O)c2ccc3ccccc3n2)cc1 | 16.3 (≈ 46.5 µM) |
| CC1CC(C)CN(CC(O)COC2CC(C)CC(C)(C)C2)C1.Cl (stereo not drawn) | 47.9 |
| COc1ccc(-n2nc(C)c3sc(C)nc3c2=O)cc1 | > 43.1 |
| Cc1ccc(S(C)(=O)=NC(=O)c2cc(C)on2)cc1 (stereo not drawn) | 41.5 (≈ 149 µM) |
| O=C(COC(=O)C1CCC(=O)N1)Nc1cccc([N+](=O)[O-])c1 (stereo not drawn) | > 46.1 |
| O=C(Nc1ccccc1)N1CCN(CCc2ccccc2)CC1 | 41.6 (≈ 134 µM) |
| CC(C(=O)Nc1ccccc1)N1CCN(C(=O)c2ccco2)CC1 (stereo not drawn) | > 49.1 |
| Cc1ccc(N2C(=O)CC(Cc3cc(C)cc(C)c3)C2=O)cc1 (stereo not drawn) | 8.8 (≈ 28.6 µM) |
| CC(Sc1ccccc1)C(=O)N(CCC#N)Cc1cccnc1 (stereo not drawn) | > 48.8 |
| O=C(CCc1ccccc1)NC(=S)Nc1cccc(C(=O)O)c1 | > 49.3 |
| Cc1ccccc1NC(=S)Nc1ccccc1 | 18.8 (≈ 77.6 µM) |
| NC(=O)C1CCN(C(=O)CNC(=O)c2ccc(F)cc2)CC1 | > 46.1 |
| O=Cc1c[nH]c2ccc(OCc3ccccc3)cc12 | < 0.5 |
| COc1ccc(C(C)=O)cc1CSC(=N)N.Cl | > 41.2 |
| N#Cc1ccccc1COC(=O)CCC(=O)c1cccs1 | > 44.9 |
| CCCCCCNC(=O)Cc1ccc(Br)cc1 | 5 (≈ 16.8 µM) |
| O=C(O)c1[nH]c2ccccc2c1C=NCc1ccccc1Cl | 46.3 (≈ 148 µM) |
| O=C(Cc1ccccc1Cl)NC1(O)C(=O)c2ccccc2C1=O | > 49.5 |
| COc1ccc(NS(=O)(=O)c2ccc3oc(=O)ccc3c2)cc1 | > 49.7 |
| Cn1c(CC(=O)Nc2ccccc2)cc2ccccc21 | 1.7 (≈ 6.43 µM) |
| N#Cc1ccccc1OCC(=O)NNC(=O)c1ccncc1 | > 44.4 |
| CC(C)Oc1nc(-c2ccc(Cl)cc2)nc2ccccc12 | < 0.3 |
| CCN1C(=O)/C(=C\N2CCN(C(=O)c3ccco3)CC2)SC1=S | 1.1 (≈ 3.13 µM) |

| SMILES | solubility kinetic [µg/mL] |
| --- | --- |
| CC(C)Oc1ccc(C(=O)Nc2cccc3cccnc23)cc1 | 1.1 (≈ 3.59 µM) |
| Cc1ccc(C(O)Cn2cc([N+](=O)[O-])nc2C)cc1 (stereo not drawn) | > 39.2 |
| CCOc1nc(C)cc(C)c1S(=O)(=O)c1cccc(Cl)c1 | 6.2 (≈ 19 µM) |
| CCCNC(=S)N1CCC(C(=O)c2ccc(F)cc2)CC1 | > 46.3 |
| COc1ccc(NC(=O)COC(=O)CCc2ccc(S(=O)(=O)N3CCOCC3)cc2)cc1OC | 62 (≈ 126 µM) |
| O=C(NCC(=O)N1CCOCC1)OCc1ccccc1 | > 41.7 |
| COc1cc(OC)nc(Oc2ccccc2/C=N/O)n1 | > 41.3 |
| Cc1cc(Br)ccc1S(=O)(=O)n1ccnc1C | > 47.3 |
| CC(C)c1ccc[n+](-c2nc([O-])sc2C=O)c1 | 27.4 (≈ 110 µM) |
| CC(C)(C)c1ccc(C(=O)NC(=S)N2CCOCC2)cc1 | > 46 |
| COc1ccc(CCNC(=O)Nc2ccc3c(c2)OCO3)cc1OC | 5.3 (≈ 15.4 µM) |
| CC(C)NC(=O)c1sc2c(c1C(=O)Nc1cccnc1)CCCC2 | 6.4 (≈ 18.6 µM) |
| O=C(Cc1ccccc1)NCC(=O)OCC(=O)c1ccc(F)cc1 | > 49.4 |
| Cc1c(C(=O)Nc2ccccn2)oc2c(Cl)cccc12 | 9.4 (≈ 32.8 µM) |
| COc1ccc(Cl)cc1NC(=S)NCCN1CCOCC1 | > 49.5 |
| CCCCn1c(=N)n(CC(O)c2ccccc2)c2ccccc21.Cl (stereo not drawn) | > 51.9 |
| CC(NC(=O)c1ccc(Br)o1)C1CC2CCC1C2 (stereo not drawn) | 29.3 (≈ 93.8 µM) |
| O=C(CN1C(=O)c2ccccc2S1(=O)=O)Nc1ncc(Cl)cc1Cl | > 57.9 |
| CCCCN(C(C)=O)c1ccc(S(=O)(=O)NC2=NCCCCC2)cc1NC(C)=O | > 63.4 |
| CCCNC(=O)c1ccc(COc2ccc(Cl)cc2)o1 | 33 (≈ 112 µM) |
| O=C(NCc1ccco1)C1CC(O)CN1C(=O)Nc1ccccc1 (stereo not drawn) | > 49.4 |
| Cn1c(O)c(/C=N/NC(=O)c2ccncc2)c(=O)n(C)c1=S | > 47.9 |
| Cc1ccc(S(=O)(=O)CC(=O)c2ccc([N+](=O)[O-])cc2)cc1 | 9.1 (≈ 28.5 µM) |
| O=C(COC(=O)[C@@H]1CCCN1C(=O)c1cccs1)Nc1cccc(Cl)c1 | 26.9 (≈ 68.5 µM) |

| SMILES | solubility kinetic [µg/mL] |
| --- | --- |
| NS(=O)(=O)c1ccc(CCNC(=O)COC(=O)CCc2c[nH]c3ccccc23)cc1 | > 64.4 |
| CC1CCc2c(sc3ncnc(SCC(=O)N(C)C4CCS(=O)(=O)C4)c23)C1 (stereo not drawn) | 3.3 (≈ 7.75 µM) |
| CCn1c(=O)c2ccccc2n(Cc2ccc([N+](=O)[O-])cc2)c1=O | 5.6 (≈ 17.2 µM) |
| COc1cccc(C(=O)Nc2ccccc2-c2ccccc2)c1 | 24 (≈ 79.1 µM) |
| Cc1ccc(C(=O)OCC(=O)N2CCCC2)cc1 | 32.7 (≈ 132 µM) |
| CS(=O)(=O)N1CCCC(C(=O)Nc2ccccc2C(F)(F)F)C1 (stereo not drawn) | > 52.6 |
| Cn1c(N)c(C(=O)COC(=O)c2cc(S(=O)(=O)N3CCOCC3)ccc2F)c(=O)n(C)c1=O | > 72.7 |
| Cc1cc(C(=O)CCC(=O)N2CCN(c3ccccc3)CC2)c(C)s1 | 46.5 (≈ 130 µM) |
| O=Cc1sc(N2CCOCC2)nc1-c1ccccc1 | 4.5 (≈ 16.4 µM) |
| O=C(NC(=S)Nc1ccc2oc(=O)ccc2c1)c1ccccc1F | 1.4 (≈ 4.09 µM) |
| CN(C)c1cccc(C(=O)NCc2ccc3c(c2)OCO3)c1 | > 44.8 |
| CCNC(=S)Nc1ccc(OCc2nc3ccccc3s2)cc1 | 2.8 (≈ 8.15 µM) |
| O=C(CCSCc1ccc(Cl)cc1)NCc1ccco1 | 39.5 (≈ 127 µM) |
| CC(C)CNS(=O)(=O)c1ccc(CCC(=O)NC2CCCCC2)cc1 | 10.5 (≈ 28.6 µM) |
| CSc1nc(C(C)C)ccc1CNC(=O)CC(C)c1ccccc1 (stereo not drawn) | 1.3 (≈ 3.8 µM) |
| CCN(CC(=O)NCc1cccs1)CC(=O)Nc1ccc(C(N)=O)cc1 | > 56.2 |
| O=C(Nc1nccs1)C(Cl)(Cl)Cl | > 36.8 |
| Cc1cc(F)ccc1NC(=O)C1CCCO1 (stereo not drawn) | 33.3 (≈ 149 µM) |
| CC(NC(=O)CCC(=O)N1CCCCCC1)c1ccccc1 (stereo not drawn) | > 45.4 |
| Brc1cccc2sc(N3CCCC3)nc12 | 5.2 (≈ 18.4 µM) |
| CCCc1cc(=O)[nH]c(SCC(=O)Nc2nonc2C)n1 | > 46.4 |
| Nc1c(C(=O)c2ccco2)oc2ccccc12 | 25.8 (≈ 114 µM) |
| COc1ccc(N=Cc2nc(-c3ccccc3)oc2OC(C)=O)cc1 | 1.6 (≈ 4.76 µM) |
| CCCN(CC(=O)Nc1ccccc1C)C(=O)CCl | > 42.4 |

| SMILES | solubility kinetic [µg/mL] |
| --- | --- |
| Cc1ccc(C(=O)Nc2nc(C)c(C(=O)N(C)C)s2)o1 | 40.3 (≈ 137 µM) |
| OC1NC(=S)N(c2ccccc2)C1O (stereo not drawn) | > 31.5 |
| COc1ccc(NC(=O)CN2CCN(c3ccccc3C)CC2)cc1 | 35.5 (≈ 105 µM) |
| O=C1/C(=C\c2ccco2)SC(=S)N1C1CCS(=O)(=O)C1 (stereo not drawn) | 6.6 (≈ 20 µM) |
| CCOC(=O)C(C)Oc1ccc(NC(=O)C(Cl)(Cl)Cl)cc1 (stereo not drawn) | 51.1 (≈ 144 µM) |
| CCC(=O)c1cn(Cc2ccccc2)c2ccccc12 | 1 (≈ 3.8 µM) |
| O=C(NC(=S)Nc1ccccc1Br)c1ccco1 | 3.1 (≈ 9.53 µM) |
| COc1cccc(N2C(=O)C3C(C2=O)C3(c2ccccc2)c2ccccc2)c1 (stereo not drawn) | 6.3 (≈ 17.1 µM) |
| CC(=O)c1cccc(NC(=S)N2CCc3ccccc32)c1 | 3.1 (≈ 10.5 µM) |
| COc1ccc(Cc2nnc(NCCO)[nH]c2=O)cc1 | > 41.4 |
| N/C(=N\OC(=O)c1ccccc1Cl)c1cccc([N+](=O)[O-])c1 | 1.7 (≈ 5.32 µM) |
| COc1cccc(NC(=O)C(=O)NCCc2ccc(F)cc2)c1 | < 0.3 |
| CCCn1c(N)c(N2CCCCC2)c(=O)n(CC(=O)Nc2cccc(S(=O)(=O)N(C)C)c2)c1=O | 68.3 (≈ 139 µM) |
| CC(C)Cc1nnc(NC(=O)CCC(=O)NC2CC2)s1 | > 44.5 |
| CC(C)NC(=O)CNc1ccc(C(F)(F)F)cc1[N+](=O)[O-] | 13.4 (≈ 43.9 µM) |
| COC(=O)CNC(=O)COC(=O)Cc1ccc(Cl)cc1 | > 45 |
| Cc1ccc2cc(NC(=O)c3ccc(C(C)(C)C)cc3)ccc2n1 | < 0.3 |
| CNC(=O)C12CC3CC(C1)CC(c1ccc(C)cc1)(C3)C2 | 31.8 (≈ 112 µM) |
| COC(=O)c1sc(-c2ccccc2)cc1NC(C)=O | 1.7 (≈ 6.17 µM) |
| Cc1cc(C)n2nc(SCC(=O)Nc3ccccc3F)nc2n1 | > 49.7 |
| CCOc1ccc(/C=N/OCC(=O)Nc2ccc3c(c2)OCO3)cc1 | 5.2 (≈ 15.2 µM) |
| CC(=O)Nc1ccc(OCCOc2ccc(NC(C)=O)cc2)cc1 | 2.2 (≈ 6.7 µM) |
| C=CCn1c(-c2ccc(Cl)cc2)cnc1SC(C)C(=O)NC(N)=O (stereo not drawn) | 14.2 (≈ 38.9 µM) |
| COc1ccc(CCC(=O)NCCc2cnc[nH]2)cc1 | 35.2 (≈ 129 µM) |

| SMILES | solubility kinetic [µg/mL] |
| --- | --- |
| CC(C)=CC1C(C(=O)NCCc2ccccc2)C1(C)C (stereo not drawn) | 27.6 (≈ 102 µM) |
| COc1ccc(NC(=O)Nc2ccc3c(c2)CCC3)cc1 | < 0.3 |
| CN(C)C(=O)c1coc2nc3ccccc3nc12 | 4 (≈ 16.6 µM) |
| CC(=O)NCCc1ccc(C(=O)COC(=O)c2ccco2)cc1 | > 47.3 |
| COc1ccc(Cl)cc1NC(=O)NCc1ccccn1 | 41.6 (≈ 143 µM) |
| O=c1[nH]c2c(c(=O)[nH]1)CCC2 | > 22.8 |
| Cn1c(N)c(C(=O)COC(=O)COc2cc(Cl)c(Cl)cc2Cl)c(=O)n(C)c1=O | 4 (≈ 8.88 µM) |
| O=C(NCC(c1cccs1)N1CCOCC1)c1cc2ccccc2oc1=O (stereo not drawn) | 10 (≈ 26 µM) |
| CC(=O)N/N=C(\C)c1cccc(C(F)(F)F)c1 | > 36.6 |
| NS(=O)(=O)c1cccc(NC(=O)c2cccc(N3C(=O)c4ccccc4C3=O)c2)c1 | 12.2 (≈ 28.9 µM) |
| COc1ccc2[nH]c(C(=O)NCCc3ccccc3)cc2c1 | 1 (≈ 3.4 µM) |
| O=Cc1c(NCc2ccccc2Cl)c2ccccc2[nH]c1=O | 17.7 (≈ 56.6 µM) |
| CN(C)c1ccc(/C=N/NC(=O)c2ccc3nc[nH]c3c2)cc1 | > 46.1 |
| COc1cccc(NC(=O)c2cc3ccccc3cc2OC)c1 | 2.8 (≈ 9.11 µM) |
| O=[N+]([O-])c1ccc2nc(-c3cccnc3)[nH]c2c1 | > 36 |
| CN1CCCN(S(=O)(=O)c2ccc3ccccc3c2)CC1 | > 45.7 |
| Cc1ccc(OCC(O)CNCc2ccccc2)cc1C (stereo not drawn) | 36.2 (≈ 127 µM) |
| O=S(=O)(Cc1noc(-c2ccc(Cl)cc2)n1)Cc1ccco1 | 3 (≈ 8.86 µM) |
| O=C(/C=C/c1cccs1)NCc1ccc2c(c1)OCO2 | 6.3 (≈ 21.9 µM) |
| O=C(OCC(=O)N1CCCCCC1)c1ccc([N+](=O)[O-])cc1Cl | 50 (≈ 147 µM) |
| O=C(c1cccc([N+](=O)[O-])c1)N1CCCC(C(=O)N2CCCCC2)C1 (stereo not drawn) | > 51.8 |
| O=[N+]([O-])c1ccc(NCCOc2ccccc2Cl)nc1 | 1.7 (≈ 5.79 µM) |
